Patent US9493468B2, “Antifungal 5,6-dihydro-4H-pyrrolo[1,2-a][1,4]benzo-diazepines and 6H-pyrrolo[1,2-a][1,4]benzodiazepines substituted with heterocyclic derivatives” (Janssen Pharmaceutica NV, priority 2011, dated 2016)

Columns and labels:
Type in all cases: cell-based
[1] = tested on: Sporothrix schenkii; experiment: Antifungal activity in vitro, resazurin growth inhibition: Sporothrix schenkii (B62482)
Summary of the method: (§1)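 Broth microdilution: RPMI-1640/L-Gln/2% glucose, MOPS pH 7.0±0.1; 10^3 cfu/well; top concentration 64 μM, 2- or 4-fold steps. Dermatophytes at 27° C., one week or more. Resazurin 0.005% (w/v) added, fluorescence 550/590 nm.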

[2] = tested on: Aspergillus fumigatus; experiment: Antifungal activity in vitro, resazurin growth inhibition: Aspergillus fumigatus (B42928)
Summary of the method: as §1

[3] = tested on: Trichophyton mentagrophytes; experiment: Antifungal activity in vitro, resazurin growth inhibition: Trichophyton mentagrophytes (B70554)
Summary of the method: (§2)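 Fungi (10^3 cfu/well) grown in RPMI-1640 with L-glutamine, 2% glucose, MOPS pH 7.0, against 2- or 4-fold compound dilutions up to 64 μM. Dermatophytes incubated one week or more at 27° C. Growth inhibition read fluorimetrically (λex 550, λem 590 nm) after resazurin addition and further incubation.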

[4] = tested on: Candida parapsilosis; experiment: Antifungal activity in vitro, resazurin growth inhibition: Candida parapsilosis (B66126)
Summary of the method: as §1

[5] = tested on: Cryptococcus neoformans; experiment: Antifungal activity in vitro, resazurin growth inhibition: Cryptococcus neoformans (B66663)
Summary of the method: as §1

[6] = tested on: Microsporum canis; experiment: Antifungal activity in vitro, resazurin growth inhibition: Microsporum canis (B68128)
Summary of the method: as §2

[7] = tested on: Trichophyton rubrum; experiment: Antifungal activity in vitro, resazurin growth inhibition: Trichophyton rubrum (B68183)
Summary of the method: as §2

[8] = tested on: Scedosporium prolificans; experiment: Antifungal activity in vitro, resazurin growth inhibition: Scedosporium prolificans (IHEM21157)
Experimental: (§3) The standard susceptibility screen is performed in 96-well plates (U-bottom, Greiner Bio-One). Serial dilutions (2-fold or 4-fold) of 20 mM compound stock solutions are made in 100% DMSO, followed by an intermediate dilution step in water. These serial dilutions (10 μl) are then spotted onto test-plates that can be stored in the dark at 4° C. for a maximum period of 2 weeks. An adequate broad dose-range is included with 64 μM as the highest in-test concentration. The culture medium RPMI-1640 is supplemented with L-glutamine, 2% glucose and buffered with 3-(N-morpholino)-propanesulfonic acid (MOPS) at pH 7.0±0.1.
(§4) The different fungal species/isolates (Table 3a) are cryopreserved and 1/1000 diluted in medium just prior to use. A standard inoculum of 200 μl containing 10^3 colony-forming unit (cfu) is then added to each well. A positive control (100% growth=fungal culture without antifungal) and a negative control (0% growth ═RPMI-MOPS medium) are included on each plate. Optimal incubation time and temperature are dependent on the fungal species and vary from 24 h for yeasts (37° C.) to one week or more for dermatophytes (27° C.). Inhibition of fungal growth is measured after adding 10 μl of 0.005% (w/v) resazurin (Sigma Aldrich) to each well, based on the principle that living cells convert the non-fluorescent blue resazurin into the pink and fluorescent resorufin, allowing fluorimetric reading (λex 550 nm and λem 590 nm) after an additional incubation period (‘resa’ time mentioned in Table 3a).

[9] = tested on: Scedosporium apiospermum; experiment: Antifungal activity in vitro, resazurin growth inhibition: Scedosporium apiospermum (IHEM3817)
Experimental: as §3, §4

Compound	Inf. A: Sporothrix schenkii B62482, pIC50 [1]	Inf. E: Aspergillus fumigatus B42928, pIC50 [2]	Inf. G: Trichophyton mentagrophytes B70554, pIC50 [3]	Inf. D: Candida parapsilosis B66126, pIC50 [4]	Inf. F: Cryptococcus neoformans B66663, pIC50 [5]	Inf. B: Microsporum canis B68128, pIC50 [6]	Inf. C: Trichophyton rubrum B68183, pIC50 [7]	Inf. I: Scedosporium prolificans IHEM21157, pIC50 [8]	Inf. H: Scedosporium apiospermum IHEM3817, pIC50 [9]
COc1cccc2cc(C3=NCc4ccccc4-n4cccc43)oc12 [Compound 157]	<4.49	<4.49	5.96	4.61	<4.49	5.79	6.58	–	–
Clc1cc2oc(C3=NCc4c(Cl)cccc4-n4cccc43)cc2cn1 [Compound 159]	<4.49	<4.49	<4.49	<4.49	<4.49	6.41	6.46	–	–
Cc1nc(Cl)cc2cc(C3=NCc4c(Cl)cccc4-n4cccc43)oc12 [Compound 160]	<4.49	5.85	5.48	<4.49	5.61	5.03	5.84	–	–
Cc1nc2ccc(C3=NCc4c(Cl)cccc4-n4cccc43)cc2o1 [Compound 162]	4.22	4.36	5.21	<4.19	4.49	5.23	5.61	–	–
Cc1ccc(Cl)c2c1-n1cccc1C(c1cc3ccccc3s1)=NC2 [Compound 169]	<4.19	<4.19	<4.19	<4.19	<4.19	5.00	6.01	–	–
Fc1cccc2cc(C3=NCc4c(Cl)cc(Cl)cc4-n4cccc43)sc12 [Compound 171]	<4.19	<4.19	<4.19	<4.19	6.50	<4.19	5.73	–	–
Clc1cccc2c1CN=C(c1ccc3scc(Cl)c3c1)c1cccn1-2 [Compound 177]	<4.19	<4.19	<4.19	<4.19	5.73	<4.19	<4.19	–	–
Clc1ccc2c(c1)-n1cccc1C(c1ccc3scc(Cl)c3c1)=NC2 [Compound 178]	<4.19	5.93	4.26	<4.19	6.49	<4.19	4.37	–	–
Clc1cccc2c1CN=C(c1cccnc1)c1cccn1-2 [Compound 199]	<4	<4	<4	<4	5.00	4.50	5.00	<4	<4

More lines, now with the values ahead:

Inf. A: Sporothrix schenkii B62482, pIC50 [1]	Inf. E: Aspergillus fumigatus B42928, pIC50 [2]	Inf. G: Trichophyton mentagrophytes B70554, pIC50 [3]	Inf. D: Candida parapsilosis B66126, pIC50 [4]	Inf. F: Cryptococcus neoformans B66663, pIC50 [5]	Inf. B: Microsporum canis B68128, pIC50 [6]	Inf. C: Trichophyton rubrum B68183, pIC50 [7]	Inf. I: Scedosporium prolificans IHEM21157, pIC50 [8]	Inf. H: Scedosporium apiospermum IHEM3817, pIC50 [9]	Compound
4.41	4.49	4.69	<4.19	4.67	4.80	5.03	–	–	Clc1cccc2c1-n1cccc1C(c1ccc3scc(Cl)c3c1)=NC2 [Compound 179]
<4.19	<4.19	4.39	<4.19	<4.19	4.40	6.03	–	–	Clc1cccc2c1CN=C(c1nc3ccccc3s1)c1cccn1-2 [Compound 180]
<4.19	<4.19	4.98	<4.19	<4.19	5.69	5.94	–	–	Cl.Clc1cccc2c1CN=C(c1nc3ccccc3s1)c1cccn1-2 [Compound 181]
<4.49	4.94	5.87	4.58	4.91	5.52	6.70	–	–	c1ccc2c(c1)CN=C(c1ccc3ncsc3c1)c1cccn1-2 [Compound 182]
<4.19	5.02	5.52	<4.19	5.06	5.29	6.05	–	–	Fc1cccc2c1CN=C(c1ccc3scnc3c1)c1cccn1-2 [Compound 189]
<4.19	<4.19	5.31	<4.19	4.93	5.56	6.14	–	–	Fc1cc(F)c2c(c1)-n1cccc1C(c1ccc3scnc3c1)=NC2 [Compound 190]
<4.19	<4.19	5.03	<4.19	4.81	<4.19	4.29	–	–	Fc1cccc2c1CN=C(c1ccc3sc(C(F)(F)F)nc3c1)c1cccn1-2 [Compound 192]
<4.19	<4.19	<4.19	<4.19	<4.19	<4.19	<4.19	–	–	FC(F)(F)c1nc2cc(C3=NCc4c(Cl)cccc4-n4cccc43)ccc2s1 [Compound 193]
<4.19	<4.19	6.06	<4.19	<4.19	<4.19	6.82	–	–	Clc1cccc2c1CN=C(c1ccc3nsnc3c1)c1cccn1-2 [Compound 194]
<4.19	<4.19	<4.19	<4.19	<4.19	<4.19	6.34	–	–	Clc1cccc2c1CN=C(c1ccc3snnc3c1)c1cccn1-2 [Compound 195]
5.00	<4	5.33	4.00	5.00	6.00	6.00	5.00	<4	Clc1cccc2c1CN=C(c1ccc3ccccc3n1)c1cccn1-2 [Compound 197]
<4	<4	<4	<4	5.00	4.00	<4	<4	<4	Clc1cccc2c1CN=C(c1ccncc1)c1cccn1-2 [Compound 198]
